Like-named read-outs stand apart in the source and are kept apart here.
Experiments:
[1] = system: production and secretion of NGF in brain astroglial cells; assay: Promoting activity for the production and secretion of NGF in brain astroglial cells of mouse (ELISA)
Procedure: The experiment was performed by inducing the astroglial cells from mouse forebrain to culture system according to the procedures of S. Furukawa et al. which is described in Biochem. Biophys. Res. Commun., 136, 57-63 (1986).
That is, forebrains of 8-day old mice were dissected out and cut into small pieces. […] Cells and cell clamps were recovered by centrifugation at 200 xg for 5 minutes. They were cultured in Dulbecco modified Eagle's medium (a product of Gibco Co. hereinafter abbreviated as DMEM) containing 10% of fetal calf serum, […] of penicillin, and 50 μg/ml of streptomycin, for 10 to 14 days with medium changes every 3 days. After completing confluency, the cells were dissociated by trypsin treatment and recultured in new culture flasks. This procedure was repeated further twice and more. […] The cells will hereinafter be referred to as astroglial cells.
Astroglial cells were innoculated in 24-well plates having a well surface area of 2.1 cm^2 (a product of Falcon Co.) at a cell density of about 3×10^4 cells/well and cultured for 3 days in DMEM . medium supplemented with 10% of fetal calf serum. After completing confluency about 10^7 cells/well), the medium was changed to DMEM medium (0.5 ml/well) supplemented with 0.5% of bovine serum albumin ((fraction V) and cultured for 3 days. The culture was further continued with medium changes every 3 days. After cells were practically synchronized in the quiscent stage, the medium was changed to 0.5 ml of the medium supplemented with 0.5% of bovine serum albumin and containing a prescribed concentration of test sample as illustrated in Tables. […] Data are expressed as fold increase in NGF content over that in the absence of the test sample. […] Data are presented as means ±SE of four determinations.

[2] = system: production and secretion of NGF on L-M cells; assay: Promoting action for the production and secretion of NGF on L-M cells of mouse (ELISA); format: cell-based; settings: Mus musculus
Excerpt: Catecholamines have also been found in a relatively high concentration to accelerate these functions without being mediated by adrenergic receptors [Y. Furukawa et al., J. Biol. Chem., 261, 6039-6047 (1986)].
The compound having a high activity in Table 1, that is, the catechol derivative having a n-alkyl group in the 3 or 4 position on the ring has been observed an acute cell toxicity in higher concentrations. The toxicity was considered the result of two hydroxyl groups in the catechol structure. Then the hydroxyl groups were esterified or etherified and the resulting derivative was examined the effect on the activity for the production and secretion of NGF.
The experiment was performed according to the procedures of Y. Furukawa et al. which is described in J. Bis Chem., 261, 6039-6047 (1986).
The medium was cultured for 3 days at a temperature of 37° C. After completing the confluency (about 10^6 cells/well), the medium was changed to Medium 199 (0.5 ml/well) containing 0.5% bovine serum albumin (Fraction V, a product of Armour Co.). The sample of the derivative is contained in the medium at a prescribed concentration as illustrated in the Tables.

Acute toxicity (LD50) = settings: mouse, in vivo
Procedure: The catechol derivative having normal type saturated lower alkyl groups on the ring was administered by intravenous injection (i.v.), intraperitoneal injection (i.p.) or oral route (p.o.) to male ddy mice of 4-week old. The LD50 values (mg/kg) were measured by an ordinary method.

[3] = 24 h, read-out: Ratio of NGF increase, Table 3, 0.10 mM, 24 hours, mean ± SE of four determinations
[4] = 24 h, read-out: Ratio of NGF increase, Table 3, 0.25 mM, 24 hours, mean ± SE of four determinations
[5] = 24 h, Table 1, 0.03 mM, 24 hours, mean ± SE of four determinations, read-out: Ratio of NGF increase
[6] = 24 h, Table 1, 0.10 mM, 24 hours, mean ± SE of four determinations, read-out: Ratio of NGF increase
[7] = 24 h, read-out: Ratio of NGF increase, 24-hr culture, Table 4, 0.10 mM, 24-hr culture
[8] = 24 h, read-out: Ratio of NGF increase, 24-hr culture, Table 4, 0.25 mM, 24-hr culture
[9] = 48 h, read-out: Ratio of NGF increase, 48-hr culture, Table 4, 0.10 mM, 48-hr culture
[10] = 48 h, read-out: Ratio of NGF increase, 48-hr culture, Table 4, 0.25 mM, 48-hr culture
[11] = 24 h, Table 2, 0.03 mM, 24-hr culture, read-out: Ratio of NGF increase, 24-hr culture
[12] = 24 h, Table 2, 0.15 mM, 24-hr culture, read-out: Ratio of NGF increase, 24-hr culture
[13] = 48 h, Table 2, 0.03 mM, 48-hr culture, read-out: Ratio of NGF increase, 48-hr culture
[14] = 48 h, Table 2, 0.15 mM, 48-hr culture, read-out: Ratio of NGF increase, 48-hr culture
[15] = 24 h, read-out: Ratio of NGF increase, 24-hr culture
[16] = 48 h, read-out: Ratio of NGF increase, 48-hr culture
[17] = 24 h, read-out: Ratio of NGF increase

SMILES	fold induction at 100 µM [1, 3]	fold induction at 250 µM [1, 4]	fold induction at 30 µM [2, 5]	fold induction at 100 µM [2, 6]	further results
CCCc1ccc(O)c(O)c1C [R = Two H, R1 = Methyl, R2 = n-Propyl]	41.3 ± 2.55	61.6 ± 4.62	6.34 ± 0.46	7.25 ± 0.32	–
CC(=O)Oc1ccc(C)cc1OC(C)=O [R = Two acetyl, R1 = H, R2 = Methyl]	–	–	–	–	fold induction at 100 µM [1, 7]: 49.8 ± 6.44; fold induction at 250 µM [1, 8]: 41.2 ± 7.32; fold induction at 100 µM [1, 9]: 77.3 ± 6.52; fold induction at 250 µM [1, 10]: 82.4 ± 7.24; fold induction at 30 µM [2, 11]: 4.92 ± 0.94; fold induction at 150 µM [2, 12]: 4.21 ± 0.4; fold induction at 30 µM [2, 13]: 7.71 ± 0.86; fold induction at 150 µM [2, 14]: 6.27 ± 0.75
CC(C)c1ccc(O)c(O)c1 [R = Two H, R1 = H, R2 = Isopropyl]	34.6 ± 1.62	42.9 ± 2.93	6.17 ± 0.44	5.9 ± 0.41	–
CCC(C)c1ccc(O)c(O)c1C (stereo not drawn) [R = Two H, R1 = Methyl, R2 = sec-Butyl]	–	–	6.74 ± 0.25	7 ± 0.76	–
COc1ccc(C)cc1OC [R = Two methyl, R1 = H, R2 = Methyl, reference compound]	–	–	–	–	fold induction at 30 µM [2, 15]: 1.04 ± 0.07; fold induction at 150 µM [2, 15]: 0.98 ± 0.06; fold induction at 30 µM [2, 16]: 1.03 ± 0.07; fold induction at 150 µM [2, 16]: 0.98 ± 0.02
CCCCc1ccc(O)c(O)c1C [R = Two H, R1 = Methyl, R2 = n-Butyl]	49.8 ± 3.65	76.2 ± 6.64	6.87 ± 0.6	7.73 ± 0.53	–
CC(C)(C)c1ccc(O)c(O)c1 [R = Two H, R1 = H, R2 = tert-Butyl]	18.5 ± 1.5	18.8 ± 2.92	3.45 ± 0.35	–	–
Cc1c(C(C)(C)C)ccc(O)c1O [R = Two H, R1 = Methyl, R2 = tert-Butyl]	9.65 ± 2.42	24.2 ± 2.73	2.82 ± 0.14	3.65 ± 0.39	–
Cc1ccc2oc(=O)oc2c1 [CO-, R1 = H, R2 = Methyl, 4-methyl-o-phenylenecarbonate]	–	–	–	–	fold induction at 100 µM [1, 7]: 52.4 ± 5.29; fold induction at 250 µM [1, 8]: 44.9 ± 4.25; fold induction at 100 µM [1, 9]: 73.4 ± 4.25; fold induction at 250 µM [1, 10]: 78.3 ± 6.5; fold induction at 30 µM [2, 11]: 4.39 ± 0.62; fold induction at 150 µM [2, 12]: 4.82 ± 0.55; fold induction at 30 µM [2, 13]: 7.54 ± 0.72; fold induction at 150 µM [2, 14]: 6.99 ± 0.52
CCCCc1c(C)ccc(O)c1O [R = Two H, R1 = n-Butyl, R2 = Methyl]	–	–	6.33 ± 0.75	6.9 ± 0.62	–
Cc1cccc(O)c1O [R = Two H, R1 = Methyl, R2 = H]	76.3 ± 6.34	5.02 ± 1.98	–	–	LD50 (Acute toxicity (LD50); ip, read-out: LD50 i.p.): > 200 mg/kg; LD50 (Acute toxicity (LD50); iv, read-out: LD50 i.v.): > 50 mg/kg; LD50 (Acute toxicity (LD50); po, read-out: LD50 p.o.): > 500 mg/kg; fold induction at 30 µM [2, 17]: 8.34 ± 0.82; fold induction at 100 µM [2, 17]: 3.92 ± 1.23
CCCCCc1cccc(O)c1O [R = Two H, R1 = n-Pentyl, R2 = H]	37.2 ± 1.28	51.5 ± 1.4	5.26 ± 0.43	9.95 ± 0.98	–

From US5214034A, “Catechol derivatives, and preventive and remedial preparations for regressive disorders in the central nervous system containing the same” (priority 1986, dated 1993)
